Results as given in US10065990B2, “Cyclic peptide compound, and preparation method, pharmaceutical composition and use thereof” (HANGZHOU GUANYU BIO-MEDICAL CO., LTD, priority 2013, dated 2018).
Where two headings read alike, the source gives them in different places.

Key:
[1] = tested on: BGC-823 (human gastric cancer cells); experiment: MTT cancer cell growth inhibition; type: cell-based; settings: Homo sapiens, BGC-823, 72 h, MTT, 72 hours incubation; read-out: GI50 BG
How it was run: (§1)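 Read-out was formazan absorbance at 570 nm after a 4 h MTT step and DMSO solubilisation, converted to cell viability and fitted for GI50. Beforehand, cells (1500/well, overnight attachment) were treated with compound at 10^−5 to 10^−10 M for 72 h at 37° C.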

[2] = tested on: HT1080 (human fibrosarcoma cells); experiment: MTT cancer cell growth inhibition; type: cell-based; settings: Homo sapiens, HT-1080, 72 h, MTT, 72 hours incubation; read-out: GI50 HT1
How it was run: as §1

[3] = tested on: N-87 (human gastric cancer cells); experiment: MTT cancer cell growth inhibition; type: cell-based; settings: Homo sapiens, 72 h, MTT, 72 hours incubation, N-87 cells; read-out: GI50 N-87
How it was run: as §1

[4] = tested on: SGC-7901 (human gastric cancer cells); experiment: MTT cancer cell growth inhibition; type: cell-based; settings: Homo sapiens, SGC-7901, 72 h, MTT, 72 hours incubation, SGC-7901 cells; read-out: GI50 SGC-7901
How it was run: as §1

[5] = tested on: MCF-7 (human breast cancer cells); experiment: MTT cancer cell growth inhibition; type: cell-based; settings: Homo sapiens, MCF7, 72 h, 72 hours incubation, read-out: GI50 MCF
How it was run: as §1

[6] = tested on: HCC827 (human non-small cell lung cancer cells); experiment: MTT cancer cell growth inhibition; type: cell-based; settings: Homo sapiens, HCC827, 72 h, MTT, 72 hours incubation, HCC827 cells; read-out: GI50 HCC827
How it was run: as §1

[7] = tested on: MDA-MB-231 (breast cancer cells); experiment: MTT cancer cell growth inhibition; type: cell-based; settings: Homo sapiens, MDA-MB-231, 72 h, read-out: GI50 MDA-MB-231, MTT, 72 hours incubation, MDA-MB-231 cells
How it was run: as §1

[8] = tested on: Bel-7402 (human hepatoma cells); experiment: MTT cancer cell growth inhibition; type: cell-based; settings: Homo sapiens, Bel-7402, 72 h, MTT, 72 hours incubation, Bel-7402 cells; read-out: GI50 Bel-7402
How it was run: as §1

[9] = tested on: PANC-1 (Pac-1, human pancreatic cancer cells); experiment: MTT cancer cell growth inhibition; type: cell-based; settings: Homo sapiens, PANC-1, 72 h, MTT, 72 hours incubation; read-out: GI50 PAN
How it was run: as §1

[10] = tested on: A549 (human lung cancer cells); experiment: MTT cancer cell growth inhibition; type: cell-based; settings: Homo sapiens, A549, 72 h, MTT, 72 hours incubation; read-out: GI50 A54
How it was run: as §1

[11] = tested on: Huh-7 (human hepatoma cells); experiment: MTT cancer cell growth inhibition; type: cell-based; settings: Homo sapiens, Huh-7, 72 h, MTT, 72 hours incubation, Huh-7 cells; read-out: GI50 Huh-7
How it was run: as §1

[12] = tested on: Hela (human cervical cancer cells); experiment: MTT cancer cell growth inhibition; type: cell-based; settings: Homo sapiens, HeLa, 72 h, MTT, 72 hours incubation; read-out: GI50 Hela
How it was run: as §1

HDAC11 = target: T1, HDAC11 (Homo sapiens, UniProt Q96DB2); experiment: HDAC biochemical activity measurement (fluorescent substrate deacetylation);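 also: HDAC11 enzyme acting on an acetyl-lysine fluorogenic substrate, then a developer frees the fluorophore, read at excitation 360 nm and emission 460 nm, IC50 over a compound dilution series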
T1 sequence (Q96DB2 1-347): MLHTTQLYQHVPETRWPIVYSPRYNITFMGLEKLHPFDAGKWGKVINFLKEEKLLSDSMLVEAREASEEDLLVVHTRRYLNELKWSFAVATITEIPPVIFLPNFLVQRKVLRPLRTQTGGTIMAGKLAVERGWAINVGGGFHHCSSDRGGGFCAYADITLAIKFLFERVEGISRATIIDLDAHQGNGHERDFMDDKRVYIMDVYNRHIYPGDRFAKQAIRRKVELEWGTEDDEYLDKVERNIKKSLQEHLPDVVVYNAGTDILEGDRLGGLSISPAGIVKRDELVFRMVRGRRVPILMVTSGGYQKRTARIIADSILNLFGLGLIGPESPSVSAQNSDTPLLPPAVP

HDAC1 = HDAC1 (Homo sapiens, UniProt Q13547); experiment: as above
HDAC8 = target: T2, HDAC8 (Homo sapiens, UniProt Q9BY41); experiment: as above; settings: 37° C. 30 minutes
T2 sequence (Q9BY41 1-377): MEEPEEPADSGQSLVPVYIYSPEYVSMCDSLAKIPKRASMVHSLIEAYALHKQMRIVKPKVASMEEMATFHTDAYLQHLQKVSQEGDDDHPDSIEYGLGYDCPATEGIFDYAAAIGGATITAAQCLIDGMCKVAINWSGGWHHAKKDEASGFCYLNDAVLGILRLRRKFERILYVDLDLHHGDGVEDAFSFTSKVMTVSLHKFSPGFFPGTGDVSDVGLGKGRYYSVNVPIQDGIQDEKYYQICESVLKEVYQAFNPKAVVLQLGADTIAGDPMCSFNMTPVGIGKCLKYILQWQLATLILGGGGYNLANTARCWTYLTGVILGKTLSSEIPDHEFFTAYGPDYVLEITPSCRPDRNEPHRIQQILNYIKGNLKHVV

[13] = tested on: MOLT-4 (human acute lymphoblastic leukemia cells); experiment: MTT cancer cell growth inhibition; type: cell-based; settings: Homo sapiens, MOLT-4, 72 h, MTT, 72 hours incubation; read-out: GI50 Mol
How it was run: as §1

[14] = tested on: U937 (human leukemia cells); experiment: MTT cancer cell growth inhibition; type: cell-based; settings: Homo sapiens, U-937, 72 h, MTT, 72 hours incubation; read-out: GI50 U93
How it was run: as §1

[15] = tested on: DU145 (human prostate cancer cells); experiment: MTT cancer cell growth inhibition; type: cell-based; settings: Homo sapiens, DU-145, 72 h, MTT, 72 hours incubation; read-out: GI50 Du1
How it was run: as §1

[16] = HDAC1, 37° C. 30 minutes, read-out: IC50 HDAC1
[17] = Table 3, read-out: IC50 HDAC1, D (non-substituent)
[18] = read-out: IC50 HDAC11, HDAC11, 37° C. 30 minutes
[19] = Table 3, column C, read-out: IC50 HDAC1, C (six-membered ring with substituents)
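For IC50 HDAC1 in this document: fluorogenic acetyl-lysine substrate (20 µM) deacetylated by HDAC1, then developer releases fluorophore read at 360 nm excitation and 460 nm emission, inhibitor incubated 30 min at 37 °C.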
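For IC50 HDAC1, C (six-membered ring with substituents) in this document: fluorogenic acetyl-lysine substrate (20 µM) deacetylated by HDAC1, then developer releases fluorophore read at 360 nm excitation and 460 nm emission, inhibitor incubated 30 min at 37 °C.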
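For IC50 HDAC1, D (non-substituent) in this document: fluorogenic acetyl-lysine substrate (20 µM) deacetylated by HDAC1, then developer releases fluorophore read at 360 nm excitation and 460 nm emission, inhibitor incubated 30 min at 37 °C.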

HDAC1, sequence (Q13547 whole entry, species assumed): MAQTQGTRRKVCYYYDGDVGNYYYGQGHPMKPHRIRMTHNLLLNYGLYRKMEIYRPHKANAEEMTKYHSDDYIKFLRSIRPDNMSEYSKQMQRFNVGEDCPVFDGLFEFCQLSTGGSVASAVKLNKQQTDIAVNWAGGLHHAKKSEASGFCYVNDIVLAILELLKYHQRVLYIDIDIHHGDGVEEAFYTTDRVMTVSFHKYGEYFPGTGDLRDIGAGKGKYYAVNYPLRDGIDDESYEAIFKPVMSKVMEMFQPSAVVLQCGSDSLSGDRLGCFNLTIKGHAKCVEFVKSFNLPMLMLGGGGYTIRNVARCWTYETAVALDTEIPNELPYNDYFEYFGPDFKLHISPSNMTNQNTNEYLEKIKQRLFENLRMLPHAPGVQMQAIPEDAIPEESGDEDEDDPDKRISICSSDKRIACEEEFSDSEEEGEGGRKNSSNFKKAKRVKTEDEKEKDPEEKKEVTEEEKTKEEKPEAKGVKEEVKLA

| GI50 [1] | GI50 [2] | GI50 [3] | GI50 [4] | GI50 [5] | GI50 [6] | GI50 [7] | GI50 [8] | GI50 [9] | GI50 [10] | GI50 [11] | GI50 [12] | IC50 (HDAC11) | IC50 (HDAC1; [16]) | IC50 (HDAC1; [17]) | IC50 (HDAC8) | GI50 [13] | GI50 [15] | IC50 (HDAC11; [18]) | Structure (SMILES) | also measured |
| --- | --- | --- | --- | --- | --- | --- | --- | --- | --- | --- | --- | --- | --- | --- | --- | --- | --- | --- | --- | --- |
| 90 nM | 80 nM | 38 nM | 23 nM | 60 nM | 26 nM | 98 nM | 95 nM | 80 nM | 60 nM | 51 nM | 70 nM | 103 nM | 92 nM | 92 nM | 50 nM |  |  |  | C/C=C1\NC(=O)c2cccc(n2)CNC(=O)C[C@@H](/C=C/CCSC(C)=O)OC(=O)[C@H](CC)NC1=O [Compound 10] |  |
| 50 nM |  | 53 nM | 43 nM | 30 nM |  | 36 nM |  |  | 40 nM | 36 nM | 90 nM |  | 33 nM |  | 34 nM | 30 nM | 50 nM | 97 nM | C/C=C1\NC(=O)c2cc(F)cc(n2)CNC(=O)C[C@@H](/C=C/CCSC(=O)CCCCCCC)OC(=O)[C@H](Cc2ccccc2)NC1=O [Compound 70] | GI50 [14]: 60 nM; IC50 (HDAC1; [19]): 33 nM |
| 30 nM | 70 nM | 38 nM | 52 nM | 50 nM |  | 36 nM | 73 nM |  | 50 nM | 36 nM | 80 nM |  | 27 nM |  | 43 nM | 30 nM | 50 nM | 94 nM | C/C=C1\NC(=O)c2cc(F)cc(n2)CNC(=O)C[C@@H](/C=C/CCSC(=O)CCC)OC(=O)[C@H](C(C)C)NC1=O [Compound 43] | GI50 [14]: 60 nM; IC50 (HDAC1; [19]): 27 nM |
| 60 nM | 70 nM | 53 nM | 34 nM | 40 nM | 22 nM | 86 nM | 92 nM | 60 nM | 50 nM | 86 nM | 50 nM |  | 183 nM | 183 nM | 161 nM |  |  | 201 nM | C/C=C1\NC(=O)c2cccc(n2)CNC(=O)C[C@@H](/C=C/CCSC(=O)CCCC)OC(=O)[C@H](C(C)C)NC1=O [Compound 4] |  |
| 60 nM | 40 nM | 61 nM | 49 nM | 50 nM | 43 nM | 24 nM | 43 nM | 40 nM | 40 nM | 24 nM | 80 nM | 83 nM | 71 nM |  |  | 20 nM | 30 nM |  | C/C=C1\NC(=O)c2ccc(F)c(n2)CNC(=O)C[C@@H](/C=C/CCSC(=O)CC)OC(=O)[C@H](C(C)C)NC1=O [Example 47] | GI50 [14]: 20 nM |
| 90 nM | 60 nM | 28 nM | 36 nM | 60 nM | 37 nM | 84 nM | 72 nM | 80 nM | 70 nM | 86 nM | 50 nM |  | 81 nM | 81 nM | 38 nM |  |  | 91 nM | C/C=C1\NC(=O)c2cccc(n2)CNC(=O)C[C@@H](/C=C/CCSC(C)=O)OC(=O)[C@H](C)NC1=O [Compound 12] |  |
| 70 nM | 80 nM | 28 nM | 51 nM | 60 nM | 65 nM | 84 nM | 86 nM | 60 nM | 60 nM | 58 nM | 60 nM |  | 75 nM | 75 nM | 63 nM |  |  | 135 nM | C/C=C1\NC(=O)c2cccc(n2)CNC(=O)C[C@@H](/C=C/CCSC(=O)CC)OC(=O)[C@H](C(C)C)NC1=O [Compound 6] |  |
| 90 nM | 90 nM | 34 nM | 43 nM | 80 nM | 41 nM | 93 nM | 94 nM | 80 nM | 80 nM | 61 nM | 70 nM | 97 nM | 153 nM | 153 nM | 41 nM |  |  |  | C/C=C1\NC(=O)c2cccc(n2)CNC(=O)C[C@@H](/C=C/CCSC=O)OC(=O)[C@H](C(C)C)NC1=O [Compound 8] |  |
| 60 nM | 70 nM | 37 nM | 43 nM | 40 nM | 55 nM | 82 nM | 93 nM | 60 nM | 50 nM | 72 nM | 50 nM |  | 74 nM | 74 nM | 67 nM |  |  | 111 nM | C/C=C1\NC(=O)c2cccc(n2)CNC(=O)C[C@@H](/C=C/CCSC(=O)CCC)OC(=O)[C@H](C(C)C)NC1=O [Compound 5] |  |
| 220 nM | 40 nM | 35 nM | 18 nM | 50 nM | 31 nM | 86 nM | 95 nM | 220 nM | 100 nM | 51 nM | 500 nM | 97 nM | 74 nM |  | 63 nM | 490 nM | 20 nM |  | C/C=C1\NC(=O)c2nccc(n2)CNC(=O)C[C@@H](/C=C/CCSC(C)=O)OC(=O)[C@H](C)NC1=O [Example 24] |  |
| 90 nM | 70 nM | 51 nM | 52 nM | 80 nM | 48 nM | 95 nM | 97 nM | 600 nM | 90 nM | 92 nM | 60 nM |  | 179 nM | 179 nM | 69 nM | 1900 nM |  | 103 nM | C=C1NC(=O)c2cccc(n2)CNC(=O)C[C@@H](/C=C/CCSC(C)=O)OC(=O)[C@H](C(C)C)NC1=O [Compound 19] |  |
